According to ChEMBL document CHEMBL1201862, “PubChem BioAssay data set” (2004):
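Exposure lasted 48 hours, with cells grown in 96-well plates and compounds tested at five concentrations. Here, GI50 denotes the concentration required for 50% inhibition of growth.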 Activity calls are given as the source filed them. Cut-off read from the data, not from the text of the source: active = GI50 up to about 1.1 µM and inactive = higher.

Tests used:
Assay in all cases: growth of human tumour cells (NCI), 48 h
786-0 = system: 786-0
A549 = system: A549
CAKI-1 = system: CAKI-1
CCRF-CEM = system: CCRF-CEM
COLO 205 = system: COLO 205
DU-145 = system: DU-145
EKVX = system: EKVX
HCC 2998 = system: HCC 2998
HCT-15 = system: HCT-15
HL-60 = system: HL-60
HOP-62 = system: HOP-62
HT-29 = system: HT-29
IGROV-1 = system: IGROV-1
K562 = system: K562
KM12 = system: KM12
LOX IMVI = system: LOX IMVI
M14 = system: M14
MCF7 = system: MCF7
MDA-MB-231 = system: MDA-MB-231
MDA-N = system: MDA-N
MOLT-4 = system: MOLT-4
Malme-3M = system: Malme-3M
NCI-H23 = system: NCI-H23
OVCAR-8 = system: OVCAR-8
PC-3 = system: PC-3
RPMI-8226 = system: RPMI-8226
RXF 393 = system: RXF 393
SF-268 = system: SF-268
SF-295 = system: SF-295
SK-MEL-28 = system: SK-MEL-28
SK-MEL-5 = system: SK-MEL-5
SK-OV-3 = system: SK-OV-3
SN12C = system: SN12C
SNB-75 = system: SNB-75
SR = system: SR
SW-620 = system: SW-620
T47D = system: T47D
TK-10 = system: TK-10
UACC-257 = system: UACC-257
UACC-62 = system: UACC-62
NCI-H226 = system: NCI-H226

SMILES | GI50 (786-0) | GI50 (A549) | GI50 (CAKI-1) | GI50 (CCRF-CEM) | GI50 (COLO 205) | GI50 (DU-145) | GI50 (EKVX) | GI50 (HCC 2998) | GI50 (HCT-15) [µM] | GI50 (HL-60) | GI50 (HOP-62) | GI50 (HT-29) | GI50 (IGROV-1) | GI50 (K562) | GI50 (KM12) | GI50 (M14) | GI50 (MCF7) | GI50 (MDA-MB-231) | GI50 (MDA-N) | GI50 (MOLT-4) | also measured
CCCCCCCCCC[C@@H](OC(C)=O)[C@@H]1CC[C@@H]([C@@H]2CC[C@@H]([C@@H](O)CC#C/C=C/CCCCCCC[C@@]3(Sc4ccccc4)C[C@H](C)OC3=O)O2)O1 | > 10 µM (inactive) | > 10 µM (inactive) | > 10 µM (inactive) | > 10 µM (inactive) | > 10 µM (inactive) | > 10 µM (inactive) | > 10 µM (inactive) | > 10 µM (inactive) | > 10 | > 10 µM (inactive) | > 10 µM (inactive) | > 10 µM (inactive) | > 10 µM (inactive) | 9.89 µM (inactive) | > 10 µM (inactive) | > 10 µM (inactive) | > 10 µM (inactive) | > 10 µM (inactive) | > 10 µM (inactive) | > 10 µM (inactive) | GI50 (LOX IMVI): > 10 µM (inactive); GI50 (Malme-3M): > 10 µM (inactive); GI50 (NCI-H23): 0.968 µM (active); GI50 (OVCAR-8): > 10 µM (inactive); GI50 (PC-3): > 10 µM (inactive); GI50 (RPMI-8226): > 10 µM (inactive); GI50 (RXF 393): > 10 µM (inactive); GI50 (SF-268): > 10 µM (inactive); GI50 (SF-295): > 10 µM (inactive); GI50 (SK-MEL-28): > 10 µM (inactive); GI50 (SK-MEL-5): 4.57 µM (inactive); GI50 (SK-OV-3): > 10 µM (inactive); GI50 (SN12C): > 10 µM (inactive); GI50 (SNB-75): > 10 µM (inactive); GI50 (SR): > 10 µM (inactive); GI50 (SW-620): > 10 µM (inactive); GI50 (T47D): 7.46 µM (inactive); GI50 (TK-10): > 10 µM (inactive); GI50 (UACC-257): 3.08 µM (inactive); GI50 (UACC-62): > 10 µM (inactive)
CC(C)=CCC1=C(O)C(=O)c2ccccc2C1=O |  |  |  |  |  |  | > 100 µM (inactive) | > 100 µM (inactive) |  |  |  |  |  |  |  |  |  |  |  |  | GI50 (NCI-H226): > 100 µM (inactive)
N#Cc1ccc(/N=C(/NCC(=O)O)Nc2cccc3ccccc23)cc1 | > 10 µM (inactive) | > 10 µM (inactive) | > 10 µM (inactive) | > 10 µM (inactive) | > 10 µM (inactive) | > 10 µM (inactive) | > 10 µM (inactive) | > 10 µM (inactive) | > 10 | > 10 µM (inactive) | > 10 µM (inactive) | > 10 µM (inactive) | > 10 µM (inactive) | > 10 µM (inactive) | > 10 µM (inactive) | > 10 µM (inactive) | > 10 µM (inactive) | > 10 µM (inactive) | > 10 µM (inactive) | > 10 µM (inactive) | GI50 (Malme-3M): > 10 µM (inactive); GI50 (NCI-H23): > 10 µM (inactive); GI50 (OVCAR-8): > 10 µM (inactive); GI50 (PC-3): > 10 µM (inactive); GI50 (RPMI-8226): > 10 µM (inactive); GI50 (RXF 393): > 10 µM (inactive); GI50 (SF-268): > 10 µM (inactive); GI50 (SF-295): > 10 µM (inactive); GI50 (SK-MEL-28): > 10 µM (inactive); GI50 (SK-MEL-5): > 10 µM (inactive); GI50 (SK-OV-3): > 10 µM (inactive); GI50 (SN12C): > 10 µM (inactive); GI50 (SNB-75): > 10 µM (inactive); GI50 (SR): > 10 µM (inactive); GI50 (SW-620): > 10 µM (inactive); GI50 (T47D): > 10 µM (inactive); GI50 (TK-10): > 10 µM (inactive); GI50 (UACC-257): > 10 µM (inactive); GI50 (UACC-62): > 10 µM (inactive)
